The kinase profiling compilation of Christmann-Franck et al. (2016)
Several values for one entry are separate records, joined by “and”; a condition that tells them apart may be missing. Equal values may be shown once.

Key:
Assay in all cases: Caliper, Mobility shift assay off-chip
AXL (human) = AXL (human) (UniProt P30530)
BLK (human) = BLK (human) (UniProt P51451)
CAMK2A (human) = CAMK2A (human) (UniProt Q9UQM7)
CHEK1 (human) = CHEK1 (human) (UniProt O14757)
CLK1 (human) = CLK1 (human) (UniProt P49759)
CSNK1A1 (human) = CSNK1A1 (human) (UniProt P48729)
CSNK2A2 (human) = CSNK2A2 (human) (UniProt P19784)
CSNK2A2 (human), sequence (P19784 whole entry, looked up): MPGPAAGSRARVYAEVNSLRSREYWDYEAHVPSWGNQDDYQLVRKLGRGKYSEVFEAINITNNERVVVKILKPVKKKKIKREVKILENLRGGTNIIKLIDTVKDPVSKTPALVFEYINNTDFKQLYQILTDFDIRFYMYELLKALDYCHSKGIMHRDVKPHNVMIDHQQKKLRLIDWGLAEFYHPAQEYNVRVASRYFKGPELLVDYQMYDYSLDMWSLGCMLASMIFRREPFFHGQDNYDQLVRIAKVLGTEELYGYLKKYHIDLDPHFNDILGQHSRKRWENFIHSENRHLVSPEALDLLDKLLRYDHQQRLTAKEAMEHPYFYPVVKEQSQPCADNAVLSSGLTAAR

DYRK2 (human) = DYRK2 (human) (UniProt Q92630)
DYRK3 (human) = DYRK3 (human) (UniProt O43781)
DYRK3 (human), sequence (O43781 whole entry, looked up): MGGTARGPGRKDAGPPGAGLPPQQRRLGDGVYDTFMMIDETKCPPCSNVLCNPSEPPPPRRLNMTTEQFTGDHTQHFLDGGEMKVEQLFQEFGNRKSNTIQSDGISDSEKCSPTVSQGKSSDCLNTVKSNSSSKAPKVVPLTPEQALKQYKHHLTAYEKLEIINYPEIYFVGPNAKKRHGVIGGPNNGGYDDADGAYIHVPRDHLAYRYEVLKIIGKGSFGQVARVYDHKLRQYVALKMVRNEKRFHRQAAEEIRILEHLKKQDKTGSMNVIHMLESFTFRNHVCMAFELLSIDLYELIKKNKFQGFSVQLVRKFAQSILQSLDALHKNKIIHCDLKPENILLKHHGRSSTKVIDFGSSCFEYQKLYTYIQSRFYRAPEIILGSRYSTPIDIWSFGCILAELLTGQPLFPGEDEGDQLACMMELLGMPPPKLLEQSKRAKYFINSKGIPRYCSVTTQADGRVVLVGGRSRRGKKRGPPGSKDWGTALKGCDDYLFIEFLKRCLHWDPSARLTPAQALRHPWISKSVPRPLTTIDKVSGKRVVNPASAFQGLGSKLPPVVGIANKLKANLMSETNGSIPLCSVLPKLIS

EPHA2 (human) = EPHA2 (human) (UniProt P29317)
EPHB2 (human) = EPHB2 (human) (UniProt P29323)
EPHB2 (human), sequence (P29323 whole entry, looked up): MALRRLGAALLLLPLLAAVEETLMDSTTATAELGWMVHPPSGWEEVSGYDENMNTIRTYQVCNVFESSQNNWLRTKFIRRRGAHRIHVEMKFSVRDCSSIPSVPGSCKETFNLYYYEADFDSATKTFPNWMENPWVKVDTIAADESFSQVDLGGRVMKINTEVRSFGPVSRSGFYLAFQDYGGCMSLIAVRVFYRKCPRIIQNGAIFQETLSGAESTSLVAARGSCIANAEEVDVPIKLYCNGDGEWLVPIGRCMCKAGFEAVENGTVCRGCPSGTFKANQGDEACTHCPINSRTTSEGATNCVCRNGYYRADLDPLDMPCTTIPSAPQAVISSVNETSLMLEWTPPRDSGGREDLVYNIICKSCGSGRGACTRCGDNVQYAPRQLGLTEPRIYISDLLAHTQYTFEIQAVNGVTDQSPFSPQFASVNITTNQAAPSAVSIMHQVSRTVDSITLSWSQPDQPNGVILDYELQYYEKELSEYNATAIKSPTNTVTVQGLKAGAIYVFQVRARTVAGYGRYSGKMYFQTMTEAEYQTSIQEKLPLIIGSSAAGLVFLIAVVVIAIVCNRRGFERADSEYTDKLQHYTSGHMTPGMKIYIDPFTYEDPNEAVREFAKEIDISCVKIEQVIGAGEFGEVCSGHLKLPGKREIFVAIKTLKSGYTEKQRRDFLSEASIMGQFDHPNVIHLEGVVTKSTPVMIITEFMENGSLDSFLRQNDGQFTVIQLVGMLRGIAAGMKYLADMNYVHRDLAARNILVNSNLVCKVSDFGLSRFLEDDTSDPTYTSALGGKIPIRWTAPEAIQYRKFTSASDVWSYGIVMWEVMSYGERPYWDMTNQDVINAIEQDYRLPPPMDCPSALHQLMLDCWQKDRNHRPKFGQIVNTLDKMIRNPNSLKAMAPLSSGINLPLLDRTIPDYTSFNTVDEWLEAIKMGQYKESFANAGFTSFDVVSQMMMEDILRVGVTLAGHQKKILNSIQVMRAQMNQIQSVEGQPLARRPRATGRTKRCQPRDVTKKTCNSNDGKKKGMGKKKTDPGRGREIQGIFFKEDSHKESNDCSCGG

FGFR3 (human) = FGFR3 (human) (UniProt P22607)
FGR (human) = FGR (human) (UniProt P09769)
FGR (human), sequence (P09769 whole entry, looked up): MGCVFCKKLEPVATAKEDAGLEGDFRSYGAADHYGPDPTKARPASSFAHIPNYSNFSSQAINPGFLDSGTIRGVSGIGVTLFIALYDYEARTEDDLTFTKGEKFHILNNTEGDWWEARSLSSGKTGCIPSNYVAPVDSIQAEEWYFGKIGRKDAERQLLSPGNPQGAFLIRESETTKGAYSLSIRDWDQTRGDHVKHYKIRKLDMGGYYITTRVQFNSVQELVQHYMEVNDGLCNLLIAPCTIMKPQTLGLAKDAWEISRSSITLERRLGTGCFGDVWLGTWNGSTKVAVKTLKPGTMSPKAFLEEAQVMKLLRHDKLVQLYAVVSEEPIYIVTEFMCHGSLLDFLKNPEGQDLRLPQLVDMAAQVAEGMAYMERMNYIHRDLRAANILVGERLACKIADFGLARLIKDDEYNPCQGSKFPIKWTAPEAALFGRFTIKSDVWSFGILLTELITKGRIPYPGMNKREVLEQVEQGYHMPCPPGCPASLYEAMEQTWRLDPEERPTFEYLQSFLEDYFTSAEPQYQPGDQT

INSR (human) = INSR (human) (UniProt P06213)
ITK (human) = ITK (human) (UniProt Q08881)
JAK1 JH1 JH2 (human) = JAK1 JH1 JH2 (human) (UniProt P23458)
KDR (human) = KDR (human) (UniProt P35968)
LYN (human) = LYN (human) (UniProt P07948)
LYN (human), sequence (P07948 whole entry, looked up): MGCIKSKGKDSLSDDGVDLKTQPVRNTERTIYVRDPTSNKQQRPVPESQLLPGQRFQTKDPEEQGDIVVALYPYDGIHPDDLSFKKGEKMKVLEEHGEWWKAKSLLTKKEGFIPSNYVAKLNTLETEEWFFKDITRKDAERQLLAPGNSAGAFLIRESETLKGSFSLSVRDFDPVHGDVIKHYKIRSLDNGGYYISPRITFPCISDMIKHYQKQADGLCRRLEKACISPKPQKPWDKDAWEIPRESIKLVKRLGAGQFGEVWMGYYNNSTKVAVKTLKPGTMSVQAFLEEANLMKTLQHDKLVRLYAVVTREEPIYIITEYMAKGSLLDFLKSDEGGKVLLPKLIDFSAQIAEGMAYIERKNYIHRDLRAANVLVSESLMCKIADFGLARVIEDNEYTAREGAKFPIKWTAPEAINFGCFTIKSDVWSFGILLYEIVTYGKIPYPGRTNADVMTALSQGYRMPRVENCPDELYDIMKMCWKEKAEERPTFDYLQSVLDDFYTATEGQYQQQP

MARK2 (human) = MARK2 (human) (UniProt Q7KZI7)
NIM1 (human) = NIM1 (human) (UniProt Q8IY84)
NIM1 (human), sequence (Q8IY84 whole entry, looked up): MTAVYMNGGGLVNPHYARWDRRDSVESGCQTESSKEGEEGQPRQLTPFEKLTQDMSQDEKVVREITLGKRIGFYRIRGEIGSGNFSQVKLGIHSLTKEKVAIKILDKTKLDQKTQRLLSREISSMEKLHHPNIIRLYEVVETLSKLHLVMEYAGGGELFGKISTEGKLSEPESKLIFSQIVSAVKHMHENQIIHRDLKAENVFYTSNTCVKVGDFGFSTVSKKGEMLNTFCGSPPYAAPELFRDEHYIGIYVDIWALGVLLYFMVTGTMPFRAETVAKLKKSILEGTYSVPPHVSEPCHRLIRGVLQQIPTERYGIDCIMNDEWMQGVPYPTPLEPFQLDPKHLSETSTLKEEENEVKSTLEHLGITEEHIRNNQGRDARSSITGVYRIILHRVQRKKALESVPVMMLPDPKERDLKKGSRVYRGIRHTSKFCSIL

NUAK2 (human) = NUAK2 (human) (UniProt Q9H093)
PAK2 (human) = PAK2 (human) (UniProt Q13177)
PAK4 (human) = PAK4 (human) (UniProt O96013)
PAK4 (human), sequence (O96013 whole entry, looked up): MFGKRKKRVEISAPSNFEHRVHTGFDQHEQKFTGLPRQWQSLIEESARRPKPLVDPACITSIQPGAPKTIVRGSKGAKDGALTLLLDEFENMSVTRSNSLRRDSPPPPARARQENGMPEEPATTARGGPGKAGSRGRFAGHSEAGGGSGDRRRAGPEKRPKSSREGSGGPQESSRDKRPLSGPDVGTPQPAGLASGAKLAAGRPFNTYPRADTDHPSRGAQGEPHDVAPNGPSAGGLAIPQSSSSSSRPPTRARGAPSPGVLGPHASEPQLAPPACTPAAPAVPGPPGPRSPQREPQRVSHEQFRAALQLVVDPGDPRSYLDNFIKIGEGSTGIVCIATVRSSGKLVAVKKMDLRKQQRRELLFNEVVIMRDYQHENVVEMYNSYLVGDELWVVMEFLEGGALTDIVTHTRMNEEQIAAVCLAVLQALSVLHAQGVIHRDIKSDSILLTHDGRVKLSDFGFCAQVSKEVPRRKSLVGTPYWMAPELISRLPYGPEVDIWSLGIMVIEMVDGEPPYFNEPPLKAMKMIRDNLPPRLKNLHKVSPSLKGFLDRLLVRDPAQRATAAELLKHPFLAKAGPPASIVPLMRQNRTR

PLK1 (human) = PLK1 (human) (UniProt P53350)
PRKACA (human) = PRKACA (human) (UniProt P17612)
RPS6KA5 KD1 KD2 (human) = RPS6KA5 KD1 KD2 (human) (UniProt O75582); conditions: compound 0.02 µM
SGK1 (human) = SGK1 (human) (UniProt O00141)
SGK1 (human), sequence (O00141 whole entry, looked up): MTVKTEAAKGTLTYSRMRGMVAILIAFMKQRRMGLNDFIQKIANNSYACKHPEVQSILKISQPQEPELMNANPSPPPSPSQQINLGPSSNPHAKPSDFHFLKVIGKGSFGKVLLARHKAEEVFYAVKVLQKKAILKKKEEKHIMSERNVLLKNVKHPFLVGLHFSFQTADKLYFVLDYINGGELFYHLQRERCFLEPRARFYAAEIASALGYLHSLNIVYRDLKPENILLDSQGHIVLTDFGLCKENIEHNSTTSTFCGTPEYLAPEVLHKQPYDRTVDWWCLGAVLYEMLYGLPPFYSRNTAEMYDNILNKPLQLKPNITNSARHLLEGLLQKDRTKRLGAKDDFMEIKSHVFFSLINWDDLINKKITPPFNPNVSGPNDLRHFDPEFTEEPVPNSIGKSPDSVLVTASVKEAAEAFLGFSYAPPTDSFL

SPHK2 (human) = SPHK2 (human) (UniProt Q9NRA0)
SRPK2 (human) = SRPK2 (human) (UniProt P78362)
TSSK3 (human) = TSSK3 (human) (UniProt Q96PN8)
WNK1 (human) = WNK1 (human) (UniProt Q9H4A3)

BLK (human), sequence (P51451 whole entry, looked up): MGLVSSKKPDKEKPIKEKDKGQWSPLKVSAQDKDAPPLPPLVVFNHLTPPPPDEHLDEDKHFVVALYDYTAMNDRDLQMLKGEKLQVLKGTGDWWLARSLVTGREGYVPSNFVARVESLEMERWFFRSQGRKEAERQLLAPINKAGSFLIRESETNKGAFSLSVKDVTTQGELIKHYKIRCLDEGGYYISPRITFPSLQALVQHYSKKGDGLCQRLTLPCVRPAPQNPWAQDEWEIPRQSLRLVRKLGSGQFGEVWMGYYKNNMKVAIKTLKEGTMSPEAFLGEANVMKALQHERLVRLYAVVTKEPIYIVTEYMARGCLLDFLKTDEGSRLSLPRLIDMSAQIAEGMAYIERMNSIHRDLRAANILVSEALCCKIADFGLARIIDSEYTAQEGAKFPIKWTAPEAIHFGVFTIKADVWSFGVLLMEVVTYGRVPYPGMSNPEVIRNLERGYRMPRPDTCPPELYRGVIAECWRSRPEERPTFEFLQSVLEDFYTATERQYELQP

Question: What does the source list for Cc1ccc(Nc2nccc(N(C)c3ccc4c(C)n(C)nc4c3)n2)cc1S(N)(=O)=O?
Answer: inhibition (AXL (human); compound 0.02 µM): 1.7%; inhibition (AXL (human); compound 0.2 µM): 10.3%; inhibition (BLK (human); compound 0.02 µM): 7.7%; inhibition (BLK (human); compound 0.2 µM): 22.7%; inhibition (CAMK2A (human); compound 0.02 µM): 5.3%; inhibition (CAMK2A (human); compound 0.2 µM): 5.1%; inhibition (CHEK1 (human); compound 0.02 µM): 1.8%; inhibition (CHEK1 (human); compound 0.2 µM): 0.3%; inhibition (CLK1 (human); compound 0.02 µM): -4.3%; inhibition (CLK1 (human); compound 0.2 µM): 6.6%; inhibition (CSNK1A1 (human); compound 0.02 µM): -4.9%; inhibition (CSNK1A1 (human); compound 0.2 µM): -7%; inhibition (CSNK2A2 (human); compound 0.02 µM): -2.8%; inhibition (CSNK2A2 (human); compound 0.2 µM): -1.4%; inhibition (DYRK2 (human); compound 0.02 µM): 0.6%; inhibition (DYRK2 (human); compound 0.2 µM): 4.1%; inhibition (DYRK3 (human); compound 0.02 µM): -2.2%; inhibition (DYRK3 (human); compound 0.2 µM): -1.4%; inhibition (EPHA2 (human); compound 0.02 µM): -5%; inhibition (EPHA2 (human); compound 0.2 µM): -2.8%; inhibition (EPHB2 (human); compound 0.02 µM): -1.3%; inhibition (EPHB2 (human); compound 0.2 µM): -2.7%; inhibition (FGFR3 (human); compound 0.02 µM): 21.3%; inhibition (FGFR3 (human); compound 0.2 µM): 68.5%; inhibition (FGR (human); compound 0.02 µM): 18.8%; inhibition (FGR (human); compound 0.2 µM): 54.2%; inhibition (INSR (human); compound 0.02 µM): 0.3%; inhibition (INSR (human); compound 0.2 µM): 4.5%; inhibition (ITK (human); compound 0.02 µM): 7%; inhibition (ITK (human); compound 0.2 µM): 2%; inhibition (JAK1 JH1 JH2 (human); compound 0.02 µM): -2.2%; inhibition (JAK1 JH1 JH2 (human); compound 0.2 µM): 0.8%; inhibition (KDR (human); compound 0.02 µM): 81.6%; inhibition (KDR (human); compound 0.2 µM): 99.2%; inhibition (LYN (human); compound 0.02 µM): 16.6% and 20.8%; inhibition (LYN (human); compound 0.2 µM): 62.4% and 63.7%; inhibition (MARK2 (human); compound 0.02 µM): 9.3%; inhibition (MARK2 (human); compound 0.2 µM): 12%; inhibition (NIM1 (human); compound 0.02 µM): -11.7%; inhibition (NIM1 (human); compound 0.2 µM): 10.4%; inhibition (NUAK2 (human); compound 0.02 µM): -16.5%; inhibition (NUAK2 (human); compound 0.2 µM): 6.3%; inhibition (PAK2 (human); compound 0.02 µM): 5.5%; inhibition (PAK2 (human); compound 0.2 µM): 2%; inhibition (PAK4 (human); compound 0.02 µM): 0.9%; inhibition (PAK4 (human); compound 0.2 µM): 8%; inhibition (PLK1 (human); compound 0.02 µM): -0.7%; inhibition (PLK1 (human); compound 0.2 µM): -2.2%; inhibition (PRKACA (human); compound 0.02 µM): -6.3%; inhibition (PRKACA (human); compound 0.2 µM): -5%; inhibition (RPS6KA5 KD1 KD2 (human)): -4.7%; inhibition (SGK1 (human); compound 0.02 µM): -0.7%; inhibition (SGK1 (human); compound 0.2 µM): -4.1%; inhibition (SPHK2 (human); compound 0.02 µM): 4.3%; inhibition (SPHK2 (human); compound 0.2 µM): -6.2%; inhibition (SRPK2 (human); compound 0.02 µM): -4.8%; inhibition (SRPK2 (human); compound 0.2 µM): -3.2%; inhibition (TSSK3 (human); compound 0.02 µM): 2.2%; inhibition (TSSK3 (human); compound 0.2 µM): 6.7%; inhibition (WNK1 (human); compound 0.02 µM): 1.6%; inhibition (WNK1 (human); compound 0.2 µM): 5.1%
